# Experimental data as given in US6352958B1, “Cycloimido-substituted benzofused heterocyclic herbicides” (FMC Corporation, priority 1997, dated 2002).
# Legend:
# Type in all cases: in vivo
# [1] = system: soybean (Glycine max var. Winchester); experiment: Preemergence herbicidal activity, soybean; conditions: Rate of Application 0.3 Kg/Ha, examined after 12-17 days
# [2] = system: wheat (Triticum aestivum var. Lew); experiment: Preemergence herbicidal activity, wheat; conditions: Rate of Application 0.3 Kg/Ha, examined after 12-17 days
# [3] = system: field corn (Zea mays var. Pioneer 3732); experiment: Preemergence herbicidal activity, corn; conditions: Rate of Application 0.3 Kg/Ha, examined after 12-17 days
# [4] = system: velvetleaf (Abutilon theophrasti); experiment: Preemergence herbicidal activity, velvetleaf; conditions: Rate of Application 0.3 Kg/Ha, examined after 12-17 days
# [5] = system: morningglory (Ipomea lacunosa or Ipomea hederacea); experiment: Preemergence herbicidal activity, morningglory; conditions: Rate of Application 0.3 Kg/Ha, examined after 12-17 days
# [6] = system: common chickweed (Stellaria media); experiment: Preemergence herbicidal activity, chickweed; conditions: Rate of Application 0.3 Kg/Ha, examined after 12-17 days
# [7] = system: common cocklebur (Xanthium strumarium L.); experiment: Preemergence herbicidal activity, cocklebur; conditions: Rate of Application 0.3 Kg/Ha, examined after 12-17 days
# [8] = system: blackgrass (Aloepecurus myosuroides); experiment: Preemergence herbicidal activity, blackgrass; conditions: Rate of Application 0.3 Kg/Ha, examined after 12-17 days
# [9] = system: green foxtail (Setaria viridis); experiment: Preemergence herbicidal activity, green foxtail; conditions: Rate of Application 0.3 Kg/Ha, examined after 12-17 days
# [10] = system: Johnsongrass (Sorghum halepense); experiment: Preemergence herbicidal activity, johnsongrass; conditions: Rate of Application 0.3 Kg/Ha, examined after 12-17 days
# [11] = system: soybean (Glycine max var. Winchester); experiment: Postemergence herbicidal activity, soybean; conditions: rate of application 0.3 Kg/Ha, rated after 12-17 days
# [12] = system: wheat (Triticum aestivum var. Lew); experiment: Postemergence herbicidal activity, wheat; conditions: rate of application 0.3 Kg/Ha, rated after 12-17 days
# [13] = system: field corn (Zea mays var. Pioneer 3732); experiment: Postemergence herbicidal activity, corn; conditions: rate of application 0.3 Kg/Ha, rated after 12-17 days
# [14] = system: velvetleaf (Abutilon theophrasti); experiment: Postemergence herbicidal activity, velvetleaf; conditions: rate of application 0.3 Kg/Ha, rated after 12-17 days
# [15] = system: morningglory (Ipomea lacunosa or Ipomea hederacea); experiment: Postemergence herbicidal activity, morningglory; conditions: rate of application 0.3 Kg/Ha, rated after 12-17 days
# [16] = system: common cocklebur (Xanthium strumarium L.); experiment: Postemergence herbicidal activity, cocklebur; conditions: rate of application 0.3 Kg/Ha, rated after 12-17 days
# [17] = system: blackgrass (Aloepecurus myosuroides); experiment: Postemergence herbicidal activity, blackgrass; conditions: rate of application 0.3 Kg/Ha, rated after 12-17 days
# [18] = system: green foxtail (Setaria viridis); experiment: Postemergence herbicidal activity, green foxtail; conditions: rate of application 0.3 Kg/Ha, rated after 12-17 days
# [19] = system: Johnsongrass (Sorghum halepense); experiment: Postemergence herbicidal activity, johnsongrass; conditions: rate of application 0.3 Kg/Ha, rated after 12-17 days
structure (smiles),measurement,setting,value
Cn1c(C(F)(F)F)cc(=O)n(-c2c(F)cc(Cl)c3nc(Cc4ccccc4)[nH]c23)c1=O [Compound 376],PREEMERGENCE HERBICIDAL ACTIVITY (% CONTROL) SOY,[1],50%
same,PREEMERGENCE HERBICIDAL ACTIVITY (% CONTROL) WHT,[2],60%
same,PREEMERGENCE HERBICIDAL ACTIVITY (% CONTROL) CRN,[3],80%
same,PREEMERGENCE HERBICIDAL ACTIVITY (% CONTROL) ABUTH,[4],100%
same,PREEMERGENCE HERBICIDAL ACTIVITY (% CONTROL) IPOSS,[5],100%
same,PREEMERGENCE HERBICIDAL ACTIVITY (% CONTROL) STEME,[6],100%
same,PREEMERGENCE HERBICIDAL ACTIVITY (% CONTROL) XANPE,[7],100%
same,PREEMERGENCE HERBICIDAL ACTIVITY (% CONTROL) ALOMY,[8],100%
same,PREEMERGENCE HERBICIDAL ACTIVITY (% CONTROL) SETVI,[9],100%
same,PREEMERGENCE HERBICIDAL ACTIVITY (% CONTROL) SORHA,[10],70%
same,Postemergence herbicidal activity (% control) SOY,[11],90%
same,Postemergence herbicidal activity (% control) WHT,[12],50%
same,Postemergence herbicidal activity (% control) CRN,[13],95%
same,Postemergence herbicidal activity (% control) ABUTH,[14],100%
same,Postemergence herbicidal activity (% control) IPOSS,[15],100%
same,Postemergence herbicidal activity (% control) XANPE,[16],100%
same,Postemergence herbicidal activity (% control) ALOMY,[17],90%
same,Postemergence herbicidal activity (% control) SETVI,[18],100%
same,Postemergence herbicidal activity (% control) SORHA,[19],100%
Cn1c(C(F)(F)F)cc(=O)n(-c2c(F)cc(Cl)c3cc(C(C)(C)N)oc23)c1=O [Compound 254],PREEMERGENCE HERBICIDAL ACTIVITY (% CONTROL) SOY,[1],25%
same,PREEMERGENCE HERBICIDAL ACTIVITY (% CONTROL) WHT,[2],20%
same,PREEMERGENCE HERBICIDAL ACTIVITY (% CONTROL) CRN,[3],80%
same,PREEMERGENCE HERBICIDAL ACTIVITY (% CONTROL) ABUTH,[4],100%
same,PREEMERGENCE HERBICIDAL ACTIVITY (% CONTROL) IPOSS,[5],50%
same,PREEMERGENCE HERBICIDAL ACTIVITY (% CONTROL) STEME,[6],30%
same,PREEMERGENCE HERBICIDAL ACTIVITY (% CONTROL) XANPE,[7],50%
same,PREEMERGENCE HERBICIDAL ACTIVITY (% CONTROL) ALOMY,[8],60%
same,PREEMERGENCE HERBICIDAL ACTIVITY (% CONTROL) SETVI,[9],100%
same,PREEMERGENCE HERBICIDAL ACTIVITY (% CONTROL) SORHA,[10],80%
same,Postemergence herbicidal activity (% control) SOY,[11],95%
same,Postemergence herbicidal activity (% control) WHT,[12],40%
same,Postemergence herbicidal activity (% control) CRN,[13],80%
same,Postemergence herbicidal activity (% control) ABUTH,[14],100%
same,Postemergence herbicidal activity (% control) IPOSS,[15],70%
same,Postemergence herbicidal activity (% control) XANPE,[16],95%
same,Postemergence herbicidal activity (% control) ALOMY,[17],50%
same,Postemergence herbicidal activity (% control) SETVI,[18],100%
same,Postemergence herbicidal activity (% control) SORHA,[19],80%
CC(=O)OCCc1cc2c(Cl)cc(F)c(-n3c(=O)cc(C(F)(F)F)n(C)c3=O)c2o1 [Compound 260],PREEMERGENCE HERBICIDAL ACTIVITY (% CONTROL) SOY,[1],100%
same,PREEMERGENCE HERBICIDAL ACTIVITY (% CONTROL) WHT,[2],70%
same,PREEMERGENCE HERBICIDAL ACTIVITY (% CONTROL) CRN,[3],80%
same,PREEMERGENCE HERBICIDAL ACTIVITY (% CONTROL) ABUTH,[4],100%
same,PREEMERGENCE HERBICIDAL ACTIVITY (% CONTROL) IPOSS,[5],100%
same,PREEMERGENCE HERBICIDAL ACTIVITY (% CONTROL) STEME,[6],100%
same,PREEMERGENCE HERBICIDAL ACTIVITY (% CONTROL) XANPE,[7],100%
same,PREEMERGENCE HERBICIDAL ACTIVITY (% CONTROL) ALOMY,[8],95%
same,PREEMERGENCE HERBICIDAL ACTIVITY (% CONTROL) SETVI,[9],100%
same,PREEMERGENCE HERBICIDAL ACTIVITY (% CONTROL) SORHA,[10],100%
same,Postemergence herbicidal activity (% control) SOY,[11],90%
same,Postemergence herbicidal activity (% control) WHT,[12],80%
same,Postemergence herbicidal activity (% control) CRN,[13],70%
same,Postemergence herbicidal activity (% control) ABUTH,[14],100%
same,Postemergence herbicidal activity (% control) IPOSS,[15],100%
same,Postemergence herbicidal activity (% control) XANPE,[16],100%
same,Postemergence herbicidal activity (% control) ALOMY,[17],90%
same,Postemergence herbicidal activity (% control) SETVI,[18],100%
same,Postemergence herbicidal activity (% control) SORHA,[19],90%
